Measured values from paper PMC5668067, “Phase I dose-escalation study of the c-Met tyrosine kinase inhibitor SAR125844 in Asian patients with advanced solid tumors, including patients with MET-amplified gastric cancer” (Oncotarget, 2017).

How the values were obtained:
[1] = tested on: xenograft models of MET-amplified human gastric tumors; set-up: method as in PMID 25504634; conditions: cited from earlier work
[2] = tested on: Asian patients with solid tumors; test: phase I safety: treatment-emergent adverse events (NCI CTCAE v4.03), safety population; format: in vivo
Protocol: SAR was administered by weekly intravenous infusion on days 1, 8, 15, and 22 of each 28–day cycle. The starting dose was 260 mg/m^2, and dose increments of 30% were made, to a maximum of 570 mg/m^2. Treatment continued until disease progression, unacceptable toxicity, or consent withdrawal. Patients were screened within 21 days before the first administration and followed for 30 days after the last administration.
The safety population consisted of all patients exposed to SAR, regardless of the amount of treatment administered.

[3] = two xenograft models, intravenous single-agent
[4] = dose-escalation cohort, 260 mg/m^2 (N = 6)
[5] = dose-escalation cohort, 340 mg/m^2 (N = 4)
[6] = dose-escalation cohort, 440 mg/m^2 (N = 3)
[7] = dose-escalation cohort, 570 mg/m^2 (N = 6)
[8] = dose-expansion cohort, All (N = 19)
[9] = dose-expansion cohort, GC (N = 14)

## O=C(NCCN1CCOCC1)Nc1nc2ccc(Sc3nnc4ccc(-c5ccc(F)cc5)nn34)cc2s1 [SAR125844]
[1]; preclinical
  toxicity profile: acceptable toxicity profile
[1]; [3]
  c-Met kinase inhibition in xenograft tumors: c-Met kinase inhibition
  tumor regression: dose-dependent tumor regression
[2]; TEAE considered unrelated to the study drug
  patients who discontinued treatment because of a TEAE: One
[2]; Total (N = 38)
  TEAE Abdominal pains: 8 (21.1) n (%)
  TEAE Back pain: 5 (13.2) n (%)
  TEAE Cancer pain: 4 (10.5) n (%)
  TEAE Constipation: 8 (21.1) n (%)
  TEAE Cough: 4 (10.5) n (%)
  TEAE Decreased appetite: 11 (28.9) n (%)
  TEAE Diarrhea: 5 (13.2) n (%)
  TEAE Edema, peripheral: 4 (10.5) n (%)
  TEAE Fatigue/asthenia: 8 (21.1) n (%)
  TEAE Injection site reaction/phlebitis: 7 (18.4) n (%)
  TEAE Insomnia: 4 (10.5) n (%)
  TEAE Nausea: 14 (36.8) n (%)
  TEAE Pyrexia: 7 (18.4) n (%)
  TEAE Rash: 4 (10.5) n (%)
  TEAE Vomiting: 13 (34.2) n (%)
[2]; all patients (N = 38)
  deaths due to adverse events: no deaths
  frequency of abdominal pains: 21.1%
  frequency of constipation: 21.1%
  frequency of decreased appetite: 28.9%
  frequency of fatigue or asthenia: 21.1%
  frequency of nausea: 36.8%
  frequency of vomiting: 34.2%
  patients with at least one dose modification: Nine
  patients with drug-related Grade ≥ 3 AEs: 7.9%
  patients with infusion interrupted because of a grade 2 infusion-related reaction: one
  patients with study-drug related Grade ≥ 3 TEAEs: three
  serious TEAEs considered study-drug related: none
[2]; all patients (N = 38), 15 patients
  patients with Grade ≥ 3 TEAEs: 39.5%
[2]; all patients (N = 38), 22 patients
  patients with study-drug related TEAEs: 57.9%
[2]; all patients (N = 38), 36 patients
  patients with TEAEs: 94.7%
[2]; all patients (N = 38), eight patients
  patients with serious TEAEs: 21.1%
[2]; [4]
  TEAE Abdominal pains: 1 (16.7) n (%)
  TEAE Back pain: 3 (50.0) n (%)
  TEAE Cancer pain: 0 (0) n (%)
  TEAE Constipation: 2 (33.3) n (%)
  TEAE Cough: 2 (33.3) n (%)
  TEAE Decreased appetite: 1 (16.7) n (%)
  TEAE Diarrhea: 0 (0) n (%)
  TEAE Edema, peripheral: 0 (0) n (%)
  TEAE Fatigue/asthenia: 3 (50) n (%)
  TEAE Injection site reaction/phlebitis: 1 (16.7) n (%)
  TEAE Insomnia: 1 (16.7) n (%)
  TEAE Nausea: 1 (16.7) n (%)
  TEAE Pyrexia: 4 (66.7) n (%)
  TEAE Rash: 2 (33.3) n (%)
  TEAE Vomiting: 1 (16.7) n (%)
[2]; [5]
  TEAE Abdominal pains: 0 (0) n (%)
  TEAE Back pain: 0 (0) n (%)
  TEAE Cancer pain: 0 (0) n (%)
  TEAE Constipation: 0 (0) n (%)
  TEAE Cough: 1 (25.0) n (%)
  TEAE Decreased appetite: 1 (25.0) n (%)
  TEAE Diarrhea: 0 (0) n (%)
  TEAE Edema, peripheral: 0 (0) n (%)
  TEAE Fatigue/asthenia: 0 (0) n (%)
  TEAE Injection site reaction/phlebitis: 0 (0) n (%)
  TEAE Insomnia: 0 (0) n (%)
  TEAE Nausea: 2 (50) n (%)
  TEAE Pyrexia: 0 (0) n (%)
  TEAE Rash: 1 (25.0) n (%)
  TEAE Vomiting: 1 (25.0) n (%)
[2]; [6]
  TEAE Abdominal pains: 1 (33.3) n (%)
  TEAE Back pain: 0 (0) n (%)
  TEAE Cancer pain: 1 (33.3) n (%)
  TEAE Constipation: 1 (33.3) n (%)
  TEAE Cough: 0 (0) n (%)
  TEAE Decreased appetite: 1 (33.3) n (%)
  TEAE Diarrhea: 0 (0) n (%)
  TEAE Edema, peripheral: 0 (0) n (%)
  TEAE Fatigue/asthenia: 1 (33.3) n (%)
  TEAE Injection site reaction/phlebitis: 0 (0) n (%)
  TEAE Insomnia: 0 (0) n (%)
  TEAE Nausea: 0 (0) n (%)
  TEAE Pyrexia: 0 (0) n (%)
  TEAE Rash: 0 (0) n (%)
  TEAE Vomiting: 0 (0) n (%)
[2]; [7]
  TEAE Abdominal pains: 0 (0) n (%)
  TEAE Back pain: 0 (0) n (%)
  TEAE Cancer pain: 2 (33.3) n (%)
  TEAE Constipation: 1 (16.7) n (%)
  TEAE Cough: 0 (0) n (%)
  TEAE Decreased appetite: 0 (0) n (%)
  TEAE Diarrhea: 0 (0) n (%)
  TEAE Edema, peripheral: 1 (16.7) n (%)
  TEAE Fatigue/asthenia: 0 (0) n (%)
  TEAE Injection site reaction/phlebitis: 1 (16.7) n (%)
  TEAE Insomnia: 0 (0) n (%)
  TEAE Nausea: 3 (50) n (%)
  TEAE Pyrexia: 0 (0) n (%)
  TEAE Rash: 0 (0) n (%)
  TEAE Vomiting: 1 (16.7) n (%)
[2]; [8]
  TEAE Back pain: 2 (10.5) n (%)
  TEAE Cancer pain: 1 (5.3) n (%)
  TEAE Constipation: 4 (21.1) n (%)
  TEAE Cough: 1 (5.3) n (%)
  TEAE Decreased appetite: 8 (42.1) n (%)
  TEAE Diarrhea: 5 (26.3) n (%)
  TEAE Edema, peripheral: 3 (15.8) n (%)
  TEAE Fatigue/asthenia: 4 (21.1) n (%)
  TEAE Injection site reaction/phlebitis: 5 (26.3) n (%)
  TEAE Insomnia: 3 (15.8) n (%)
  TEAE Nausea: 8 (42.1) n (%)
  TEAE Pyrexia: 3 (15.8) n (%)
  TEAE Rash: 1 (5.3) n (%)
  TEAE Vomiting: 10 (52.6) n (%)
[2]; [9]
  TEAE Abdominal pains: 2 (14.3) n (%)
  TEAE Back pain: 2 (14.3) n (%)
  TEAE Cancer pain: 1 (7.1) n (%)
  TEAE Constipation: 2 (14.3) n (%)
  TEAE Cough: 1 (7.1) n (%)
  TEAE Decreased appetite: 5 (35.7) n (%)
  TEAE Diarrhea: 4 (28.6) n (%)
  TEAE Edema, peripheral: 2 (14.3) n (%)
  TEAE Fatigue/asthenia: 2 (14.3) n (%)
  TEAE Injection site reaction/phlebitis: 4 (28.6) n (%)
  TEAE Insomnia: 2 (14.3) n (%)
  TEAE Nausea: 4 (28.6) n (%)
  TEAE Pyrexia: 1 (7.1) n (%)
  TEAE Rash: 1 (7.1) n (%)
  TEAE Vomiting: 6 (42.9) n (%)
[2]; laboratory findings
  cases of transaminase increase (grade ≥ 3) leading to dose modification: Two
